The text below walks through data of patent US9139577B2, “Sulfoximine substituted quinazolines for pharmaceutical compositions” (Boehringer Ingelheim International GmbH, priority 2013, dated 2015).

pIC50: −log10 of the molar value.

The target of experiment [1] is MNK2a (Homo sapiens (Human), UniProt Q9HBH9). The experiment can be described thus: MNK2a in vitro kinase assay (Assay 2), ADP-Glo. The format is biochemical. The note with it: read-out: MNK2 IC50.
Experiment [2] concerns the target MNK1 (Homo sapiens (Human), UniProt Q9BUB5). The experiment can be described thus: MNK1 in vitro kinase assay (Assay 3), Z'-LYTE. The note with it: for inhibition at 1 µM: compound concentration of 1 μM, read-out: MNK1 % INH. The format is biochemical. The text has this: C. MNK1 In vitro Kinase Assay (Assay 3)
MNK1 Data can be obtained from the MNK1 Z′-LYTE® assay. The MNK1 Z′-LYTE® screening protocol and assay conditions are also described on www.invitrogen.com.
The assay is described as follows:
The Z′-LYTE® biochemical assay employs a fluorescence-based, coupled-enzyme format and is based on the differential sensitivity of phosphorylated and non-phosphorylated peptides to proteolytic cleavage. The peptide substrate is labeled with two fluorophores—one at each end—that make up a FRET pair.
In the primary reaction, the kinase transfers the gamma-phosphate of ATP to a single tyrosine, serine or threonine residue in a synthetic FRET-peptide. In the secondary reaction, a site-specific protease recognizes and cleaves non-phosphorylated FRET-peptides. Phosphorylation of FRET-peptides suppresses cleavage by the Development Reagent. Cleavage disrupts FRET between the donor (i.e., coumarin) and acceptor (i.e., fluorescein) fluorophores on the FRET-peptide, whereas uncleaved, phosphorylated FRET-peptides maintain FRET. A ratiometric method, which calculates the ratio (the Emission Ratio) of donor emission to acceptor emission after excitation of the donor fluorophore at 400 nm, is used to quantitate reaction progress, as shown in the equation below.
ASSAY SETUP: The inhibition of kinase activity of MNK1a was assessed using pre-activated GST-MNK1a. The 2×MKNK1 (MNK1) mixture is prepared in 50 mM HEPES pH 7.5, 0.01% BRIJ-35, 10 mM MgCl2, 4 mM MnCl2, 1 mM EGTA, 2 mM DTT.
The Test Compounds are screened in 1% DMSO (final) in the well.
All Peptide/Kinase Mixtures are diluted to a 2× working concentration in the MNK1 Kinase Buffer.
All ATP Solutions are diluted to a 4× working concentration in Kinase Buffer (50 mM HEPES pH 7.5, 0.01% BRIJ-35, 10 mM MgCl2, 1 mM EGTA).
Development Reagent Solution:
The Development Reagent is diluted in Development Buffer
1. 2.5 μL—4× Test Compound
2. 5 μL—2× Peptide/Kinase Mixture
5. 60-minute Kinase Reaction incubation at room temperature
6. 5 μl—Development Reagent Solution
8. 60-minute Development Reaction incubation at room temperature
9. Read on fluorescence plate reader and analyze the data
The following equations are used for each set of data points: […]
Correction for Background Fluorescence: FlSample-FlTCFl Ctl
% Phosphorylation (% Phos): 1−((Emission Ratio×F100%)−C100%)/((C0%−C100%)+[Emission Ratio×(F100%−F0%)])*100%
% Inhibition: 1−(% PhosSample/% Phos0% Inhibition Ctl)*100
Fl=Fluorescence Intensity
C100%=Average Coumarin emission signal of the 100% Phos. Control
C0%=Average Coumarin emission signal of the 0% Phos. Control
F100%=Average Fluorescein emission signal of the 100% Phos. Control
F0%=Average Fluorescein emission signal of the 0% Phos. Control
SelectScreen® Kinase Profiling Service uses XLfit from IDBS.

MNK1, sequence (Q9BUB5 other isoform, or with tags, fused parts or gaps): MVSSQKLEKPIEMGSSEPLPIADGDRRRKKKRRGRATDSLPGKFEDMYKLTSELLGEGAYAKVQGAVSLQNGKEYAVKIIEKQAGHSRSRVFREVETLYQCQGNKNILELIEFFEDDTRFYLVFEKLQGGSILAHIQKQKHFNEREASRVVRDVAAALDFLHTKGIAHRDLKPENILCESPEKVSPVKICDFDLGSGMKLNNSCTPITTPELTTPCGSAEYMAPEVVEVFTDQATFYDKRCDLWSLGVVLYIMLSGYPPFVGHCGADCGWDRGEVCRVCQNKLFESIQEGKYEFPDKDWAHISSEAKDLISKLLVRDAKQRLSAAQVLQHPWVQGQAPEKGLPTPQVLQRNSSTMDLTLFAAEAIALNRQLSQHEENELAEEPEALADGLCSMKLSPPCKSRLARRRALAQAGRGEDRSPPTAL
MNK2a, sequence (Q9HBH9 whole entry): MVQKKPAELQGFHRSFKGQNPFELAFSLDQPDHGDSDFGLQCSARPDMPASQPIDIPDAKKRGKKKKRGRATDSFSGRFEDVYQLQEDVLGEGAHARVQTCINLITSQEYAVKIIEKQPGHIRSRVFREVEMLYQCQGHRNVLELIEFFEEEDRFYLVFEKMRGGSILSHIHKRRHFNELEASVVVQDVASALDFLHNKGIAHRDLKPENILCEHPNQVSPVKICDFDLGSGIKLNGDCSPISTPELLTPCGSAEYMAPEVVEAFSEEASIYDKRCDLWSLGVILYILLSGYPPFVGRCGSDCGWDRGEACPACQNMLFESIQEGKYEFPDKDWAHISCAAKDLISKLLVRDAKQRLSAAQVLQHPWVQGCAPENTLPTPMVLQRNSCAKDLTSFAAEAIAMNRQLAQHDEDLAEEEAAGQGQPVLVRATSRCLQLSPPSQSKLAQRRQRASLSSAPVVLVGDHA

In the case of `Cc1cc(N=S(C)(C)=O)cc2ncnc(Nc3ccc(F)cc3OCC3CCO3)c12` (centres unmarked) [Example 3.013], the pIC50 in experiment [1] is 8.10. For the same compound, in experiment [2], the inhibition at 1 µM stood at 88%.
The like results for `Cc1cc(N=S(C)(C)=O)cc2ncnc(Nc3ccc(F)cc3OCC3(C#N)CCC3)c12` [Example 3.014] were, in that order, 8.10 and 78%.
The like results for `Cc1cc(N=S(C)(C)=O)cc2ncnc(Nc3ccc(F)cc3OC(C)Cn3ccnc3C)c12` (centres unmarked) [Example 3.015] were, in that order, 8.52 and 45%.
For `C#CC(C)Oc1cc(F)ccc1Nc1ncnc2cc(N=S(C)(C)=O)cc(C)c12` (centres unmarked) [Example 3.016], in that order: 8.70 and 90%.
For `Cc1cc(N=S(C)(C)=O)cc2ncnc(Nc3ccc(F)cc3O[C@H](C)CN)c12` [Example 3.018], in experiment [1], the negative logarithm of the IC50 (pIC50) is 9.00. In experiment [2], the inhibition at 1 µM was 92%.
The like results for `Cc1cc(N=S(C)(C)=O)cc2ncnc(Nc3ccc(F)cc3OC(C)CC3CCOCC3)c12` (centres unmarked) [Example 3.019] were, in that order, 7.62 and 48%.
For `Cc1cc(N=S(C)(C)=O)cc2ncnc(Nc3ccc(F)cc3OC(C)c3ccccn3)c12` (centres unmarked) [Example 3.021], in that order: 8.70 and 86%.
For `CCOC(=O)[C@@H](C)Oc1cc(F)ccc1Nc1ncnc2cc(N=S(C)(C)=O)cc(C)c12` [Example 3.022], in that order: 8.70 and 98%.
`Cc1cc(N=S(C)(C)=O)cc2ncnc(Nc3ccc(F)cc3OCC(=O)N(C)C)c12` [Example 3.026]: in experiment [1], the pIC50 was 8.40. Besides, the inhibition at 1 µM in experiment [2] came to 53%.
The like results for `Cc1cc(N=S(C)(C)=O)cc2ncnc(Nc3ccc(F)cc3OCC3(C(F)(F)F)CC3)c12` [Example 3.027] were, in that order, 8.70 and 98%.
The like results for `Cc1cc(N=S(C)(C)=O)cc2ncnc(Nc3ccc(F)cc3OC(C)COC3CCOC3)c12` (centres unmarked) [Example 3.028] were, in that order, 8.22 and 92%.
For `Cc1cc(N=S(C)(C)=O)cc2ncnc(Nc3ccc(F)cc3OCC3(C)COC3)c12` [Example 3.029], in that order: 7.77 and 72%.
Take `Cc1cc(N=S(C)(C)=O)cc2ncnc(Nc3ccc(F)cc3OCCC(F)(F)F)c12` [Example 3.031]: the values for the pIC50 in experiment [1] and in experiment [2] were 8.30 and 7.12, respectively.
In the case of `CCOC(=O)[C@H](C)Oc1cc(F)ccc1Nc1ncnc2cc(N=S(C)(C)=O)cc(C)c12` [Example 3.032], the pIC50 in experiment [1] is 7.80. In addition, the inhibition at 1 µM in experiment [2] was 26%.
As to `Cc1cc(N=S(C)(C)=O)cc2ncnc(Nc3ccc(F)cc3OCC3CCNC(=O)C3)c12` (centres unmarked) [Example 3.033], in experiment [1], the pIC50 is 8.70. In addition, the inhibition at 1 µM in experiment [2] came out at 56%.
For `Cc1cc(N=S(C)(C)=O)cc2ncnc(Nc3ccc(F)cc3OC(C)c3nccs3)c12` (centres unmarked) [Example 3.035], in that order: 7.43 and 89%.
The like results for `Cc1cc(N=S(C)(C)=O)cc2ncnc(Nc3ccc(F)cc3OC[C@H]3CCC(=O)N3)c12` [Example 3.038] were, in that order, 8.70 and 86%.
Take `Cc1cc(N=S(C)(C)=O)cc2ncnc(Nc3ccc(F)cc3OCc3ccon3)c12` [Example 3.039]: the pIC50 in experiment [1] was 9.00; in experiment [2], 7.11.
As to `CCC(C)Oc1cc(F)ccc1Nc1ncnc2cc(N=S(C)(C)=O)cc(C)c12` (centres unmarked) [Example 3.042], in experiment [1], the negative logarithm of the IC50 (pIC50) is 7.82. For the same compound, the inhibition at 1 µM in experiment [2] was 78%.
As to `Cc1cc(N=S(C)(C)=O)cc2ncnc(Nc3ccc(F)cc3OC[C@@H]3CCC(=O)N3)c12` [Example 3.043], the pIC50 in experiment [1] is 8.30. Moreover, in experiment [2], the inhibition at 1 µM was 82%.
As to `Cc1cc(N=S(C)(C)=O)cc2ncnc(Nc3ccc(F)cc3OCC3COCCO3)c12` (centres unmarked) [Example 3.044], in experiment [1], the pIC50 is 7.20. Besides, in experiment [2], the inhibition at 1 µM amounted to 49%.
For `Cc1cc(N=S(C)(C)=O)cc2ncnc(Nc3ccc(F)cc3OCC3CCOCC3)c12` [Example 3.045], in that order: 8.00 and 78%.
For `Cc1cc(N=S(C)(C)=O)cc2ncnc(Nc3ccc(F)cc3OC(C)c3ccncc3)c12` (centres unmarked) [Example 3.046], in that order: 8.70 and 97%.
The like results for `C[C@@H](Oc1cc(F)ccc1Nc1ncnc2cc(N=S3(=O)CCCC3)cc(F)c12)C(=O)NCC(F)(F)F` [Example 3.047] were, in that order, 9.00 and 96%.
Regarding `Cc1cc(N=S(C)(C)=O)cc2ncnc(Nc3ccc(F)cc3OCC3CCOC3)c12` (centres unmarked) [Example 3.048], the negative-log IC50 (pIC50) in experiment [1] was 7.96. Also, the inhibition at 1 µM in experiment [2] turned out to be 88%.
In the case of `C[C@@H](Oc1cc(F)ccc1Nc1ncnc2cc(N=S(C)(C)=O)cc(F)c12)C(=O)NCC(F)(F)F` [Example 3.049], the figures for the pIC50 in experiment [1] and in experiment [2] were 8.70 and 7.17, respectively.
As to `COCC(C)Oc1cc(F)ccc1Nc1ncnc2cc(N=S(C)(C)=O)cc(C)c12` (centres unmarked) [Example 3.050], in experiment [1], the pIC50 is 7.49. Moreover, in experiment [2], the inhibition at 1 µM is 87%.
Regarding `Cc1cc(N=S(C)(C)=O)cc2ncnc(Nc3ccc(F)cc3O[C@H](C)C(=O)NC(C(F)(F)F)C(F)(F)F)c12` [Example 3.054], in experiment [1], the pIC50 was 9.00. Further, in experiment [2], the pIC50 is 7.29 and the inhibition at 1 µM was determined as 58%.
Consider `Cc1cc(N=S2(=O)CCCC2)cc2ncnc(Nc3ccc(F)cc3O[C@H](C)C(=O)NCC3CCCO3)c12` (some centres unmarked) [Example 4.001], for which, in experiment [1], the pIC50 was 8.30. Also, the inhibition at 1 µM in experiment [2] was found to be 97%.
For `Cc1cc(N=S(C)(C)=O)cc2ncnc(Nc3ccc(F)cc3O[C@H](C)C(=O)N(C)C)c12` [Example 4.002], in that order: 8.30 and 54%.
For the compound `Cc1cc(N=S2(=O)CCCC2)cc2ncnc(Nc3ccc(F)cc3O[C@H](C)C(=O)N(C)C(C)C)c12` [Example 4.003], the negative logarithm of the IC50 (pIC50) in experiment [1] is 8.70. Further, the inhibition at 1 µM in experiment [2] worked out at 96%.
As to `Cc1cc(N=S(C)(C)=O)cc2ncnc(Nc3ccc(F)cc3O[C@H](C)C(=O)N3CCC(O)C3)c12` (some centres unmarked) [Example 4.005], the pIC50 in experiment [1] is 7.55. For the same compound, in experiment [2], the inhibition at 1 µM stood at 74%.
For the compound `Cc1cc(N=S2(=O)CCCC2)cc2ncnc(Nc3ccc(F)cc3O[C@H](C)C(=O)NCC(C)O)c12` (some centres unmarked) [Example 4.008], the pIC50 in experiment [1] is 8.70. For the same compound, the inhibition at 1 µM in experiment [2] was 97%.
The like results for `Cc1cc(N=S(C)(C)=O)cc2ncnc(Nc3ccc(F)cc3O[C@H](C)C(=O)NC3COC3)c12` [Example 4.009] were, in that order, 8.70 and 99%.
On to `Cc1cc(N=S2(=O)CCCC2)cc2ncnc(Nc3ccc(F)cc3O[C@H](C)C(=O)N3CCC(O)C3)c12` (some centres unmarked) [Example 4.010], for which, in experiment [1], the pIC50 is 8.40. Besides, the inhibition at 1 µM in experiment [2] is 89%.
As to `Cc1cc(N=S(C)(C)=O)cc2ncnc(Nc3ccc(F)cc3O[C@H](C)C(=O)NCC3CCCO3)c12` (some centres unmarked) [Example 4.011], in experiment [1], the pIC50 is 7.62. Also, the inhibition at 1 µM in experiment [2] amounted to 86%.
In the case of `Cc1cc(N=S(C)(C)=O)cc2ncnc(Nc3ccc(F)cc3O[C@H](C)C(=O)N(C)Cc3ccccc3)c12` [Example 4.012], the pIC50 in experiment [1] is 7.47. Besides, the inhibition at 1 µM in experiment [2] turned out to be 56%.
Regarding `Cc1cc(N=S(C)(C)=O)cc2ncnc(Nc3ccc(F)cc3O[C@H](C)C(=O)N(C)CC(C)C)c12` [Example 4.013], in experiment [1], the pIC50 is 8.30. For the same compound, the inhibition at 1 µM in experiment [2] turned out to be 88%.
